Reference: patent US9447103B2, “Inauhzin analogues that induce P53, inhibit cell growth, and have antitumor activity” (Indiana University Research and Technology Corp., priority 2012, dated 2016)
Several values for one entry are separate records, joined by “and”; a condition that tells them apart may be missing. Equal values may be shown once. Entries after “also recorded” stand apart in the source; their conditions may differ. Read-outs that look alike come from different tables or passages of the source. Blank lines part the entries; values can stand above or below the molecule they belong to.

Assays:
p53 = p53 induction by immunoblotting (IB), H460 and/or HCT116^+/+ cells (line not singled out); assay type: cell-based, human; conditions: 18 hrs; for p53 induction / activation: synthetic analogs, IB, 0.5, 2, 10 μM, compared to INZ; for p53 induction at 0.5 μM: IB
Source text: Initial Inauhzin analogs were purchased and tested the activity on H460 and HCT116^p53+/+ by IB.
This study also investigated the activity of the compounds in cell-based assays for their ability to induce p53 levels in p53 containing human colon cancer HCT116^+/+ cells and/or human lung cancer H460 cells using immunoblotting (IB) (FIG. 1 and FIG. 8). […] Both triazino[5,6-b]indol (G1) and phenothiazine (G2) are essential functional groups for p53 induction. […] Therefore, further attention was focused on the structural modifications of the pharmacologically active core: triazino[5,6-b]indol or phenothiazine. Modifications included extension of carbon chain length on R1 (14) (FIG. 2B), the substitution on the phenothiazine ring (G2) (6-13) (FIG. 2A) or on the triazino[5,6-b]indol ring (G1) (15-36) (FIGS. 2B-2D).
(§1) Cell Culture and Immunoblotting Analysis.

H460 = experiment: Cell viability assay (3-day WST-8), H460; assay type: cell-based, human; conditions: for fold higher potency than INZ in growth inhibition: H460, versus INZ; for EC90 / EC50: H460, p53 wild type; for EC90: calculated from EC50 and Hill slope, read-out: EC90 cell growth inhibition; for EC50: 72 hrs, average of triplicates, read-out: EC50 cell growth inhibition
Procedure: (§2) Those cell lines were cultured in Dulbecco's modified Eagle's medium supplemented with 10% fetal bovine serum, 100 U per mL penicillin, and 100 U per mL streptomycin. Compounds were dissolved in DMSO and diluted directly into the medium to the indicated concentrations; 0.1% DMSO was used as a control.
(§3) Cell Viability Assay. To assess cell growth, the cell counting kit (Dojindo Molecular Technologies Inc., Gaithersburg, Md.) was used according to manufacturer's instructions. Cell suspensions were seeded at 3,000 cells per well in 96-well culture plates and incubated overnight at 37° C. Compounds were added into the plates and incubated at 37° C. for 72 hrs. Cell growth inhibition was determined by adding WST-8 at a final concentration of 10% to each well, and the absorbance of the samples was measured at 450 nm using a Microplate Reader (Molecular Device, SpecrtraMax M5^e).

HCT116^+/+ = experiment: Cell viability assay (3-day WST-8), HCT116^+/+; assay type: cell-based, human; conditions: for fold higher potency than INZ in growth inhibition: versus INZ
Procedure: as §2, §3

[1] = test system: H460 and HCT116^+/+ cells; experiment: Cell growth inhibition (WST), statements covering both p53-containing lines; assay type: cell-based, human; conditions: for EC90 fold lower than INZ: H460 and HCT116^+/+; for EC90: Homo sapiens, H460 and HCT116^+/+ together, read-out: EC90 values, range over H460 and HCT116^+/+
Source text: as §1

[2] = test system: H460 orthotopic lung tumors; experiment: H460 orthotopic lung tumor model, bioluminescent imaging; assay type: in vivo, SCID mice; conditions: i.p. 50 mg/kg once a day for 3 weeks, H460-Luc cells in pleural space
Procedure: FIGS. 13A and 13B show the effects of compound 37 on the growth of H460 orthotopic lung tumors. Each mouse was dosed once a day via i.p. with either vehicle or compound 37 (50 mg/kg) for 3 weeks starting 4 days after implantation of 5×10^5 H460-Luc tumor cells into the pleural space of the SCID mice. […] Each value is a mean of five animals ±SD. FIG. 13B is bioluminescent imaging (BLI) of orthotopic lung tumors in SCID mice.
The effects of compound 8 on the growth of H460 orthotopic lung tumors. Each mouse was dosed once a day via i.p. with either vehicle or 14 (50 mg/kg) for 3 weeks starting 4 days after implantation of 5×10^5 H460-Luc tumor cells into the pleural space of the SCID mice. […] Each value is a mean of five animals ±SD.

[3] = test system: H1299 cells and HCT116^−/− cells; experiment: Cell growth inhibition (WST), statements covering p53-null lines; conditions: for inhibitory activity in p53-null cells: in contrast to p53-containing cells
Procedure: (§4) The EC50 values for their ability to inhibit cell growth were calculated through serial dilution of their concentrations with the highest concentration at 50 μM.
(§5) Human lung carcinoma H460, non-small-cell lung cancer H1299, human colon cancer HCT116 (HCT116^+/+), and human embryonic fibroblast WI-38 were bought from the American Type Culture Collection (ATCC). […] Those cell lines were cultured in Dulbecco's modified Eagle's medium supplemented with 10% fetal bovine serum, 100 U per mL penicillin, and 100 U per mL streptomycin. Compounds were dissolved in DMSO and diluted directly into the medium to the indicated concentrations; 0.1% DMSO was used as a control.
(§6) Cell Viability Assay. To assess cell growth, the cell counting kit (Dojindo Molecular Technologies Inc., Gaithersburg, Md.) was used according to manufacturer's instructions. Cell suspensions were seeded at 3,000 cells per well in 96-well culture plates and incubated overnight at 37° C. Compounds were added into the plates and incubated at 37° C. for 72 hrs. Cell growth inhibition was determined by adding WST-8 at a final concentration of 10% to each well, and the absorbance of the samples was measured at 450 nm using a Microplate Reader (Molecular Device, SpecrtraMax M5^e). EC50 values were determined by the Hill equation using Igor 4.01 (Lake Oswego, Oreg., USA).

H1299 = experiment: Cell viability assay (3-day WST-8), H1299 (p53 null); conditions: for EC50: read-out: EC50 cell growth inhibition
Procedure: as §2, §3

HCT116^−/− = experiment: Cell viability assay (3-day WST-8), HCT116^−/− (p53 null); conditions: for EC50: read-out: EC50 cell growth inhibition
Procedure: as §4, §5, §6

[4] = test system: xenograft tumors derived from p53-harboring lung cancer H460 and colon cancer HCT116^+/+ cells; conditions: background, earlier work; cited from earlier work
[5] = Homo sapiens, HCT-116, HCT116+/+ cells, values of b177 (differ from Table 1), read-out: EC50 growth inhibition
[6] = Homo sapiens, HCT-116, HCT116^+/+, p53 wild type, calculated from EC50 and Hill slope, read-out: EC90 cell growth inhibition

Structure (SMILES): CCCCC(Sc1nnc2c(n1)[nH]c1ccccc12)C(=O)N1c2ccccc2Sc2ccccc21 (stereo not drawn) [Compound 14, 2-((5H-[1,2,4]triazino[5,6-b]indol-3-yl)thio)-1-(10H-phenothiazin-10-yl)hexan-1-one]
p53 induction / activation (p53): lower activity for p53 induction

EC90 (H460; Homo sapiens, NCI-H460): 3.5 µM
EC90 fold lower than INZ (HCT116^+/+; HCT116+/+ cells, b177): 5 fold
EC90 (HCT116^+/+; Homo sapiens, HCT-116, HCT116+/+ cells, b177, read-out: EC90): ~10 µM
EC50 (HCT116^+/+; [5]): 1.41 µM
EC90 (HCT116^+/+; [6]): 10 µM
EC90 fold lower than INZ ([1]; versus INZ): 3-10 fold
EC90 [1]: 3.5 to 10 µM
Structure (SMILES): CCC(Sc1nnc2c(n1)[nH]c1ccccc12)C(=O)N1c2ccccc2Cc2ccccc21 (stereo not drawn) [Compound 8, 2-((5H-[1,2,4]triazino[5,6-b]indol-3-yl)thio)-1-(acridin-10(9H)-yl)butan-1-one]
fold higher potency than INZ in growth inhibition (H460): more than 2 fold
fold higher potency than INZ in growth inhibition (HCT116^+/+; HCT116^+/+): more than 2 fold
fold higher potency than INZ in growth inhibition (HCT116^+/+; HCT116^+/+, listed as INZ-14): over 2 fold
p53 induction at 0.5 μM (p53): drastically induced p53
p53 induction / activation (p53): more potent in p53 activation than their parental compound INZ
bioactivity against orthotopic lung cancers (tumor burden by BLI, words) [2]: exhibited highly promising bioactivity against orthotopic lung cancers
inhibitory activity in p53-null cells [3]: much less effective

Structure (SMILES): CCC(Sc1nnc2c3ccccc3n(CC(=O)O)c2n1)C(=O)N1c2ccccc2Sc2ccccc21 (stereo not drawn) [Compound 29, 2-(3-((1-oxo-1-(10H-phenothiazin-10-yl)butan-2-yl)thio)-5H-[1,2,4]triazino[5,6-b]indol-5-yl)acetic acid]
p53 induction / activation (p53): essentially inactive

Structure (SMILES): C#CCCn1c2ccccc2c2nnc(SC(CC)C(=O)N3c4ccccc4Sc4ccccc43)nc21 (stereo not drawn) [Compound 32, 2-((5(but-3-yn-1-yl)-5H-[1,2,4]triazino[5,6-b]indol-3-yl)thiol)-1-(10H-phenothiazin-10-yl)butan-1-one]
p53 induction / activation (p53): significant decrease in activity

Structure (SMILES): CCC(Sc1nnc2c3ccccc3n(CCO)c2n1)C(=O)N1c2ccccc2Cc2ccccc21 (stereo not drawn) [Compound 37, 1-(acridin-10(9H)-yl)-2-((5-(2-hydroxyethyl)-5H-[1,2,4]triazino[5,6-b]indol-3-yl)thio)butan-1-one]
fold higher potency than INZ in growth inhibition (H460): 10 fold
fold higher potency than INZ in growth inhibition (HCT116^+/+; HCT116^+/+): 5 fold
potency improvement compared to INZ in cancer growth inhibition ([1]; versus INZ): 5- to 10 fold
p53 induction / activation (p53): more potent in p53 activation than their parental compound INZ
EC90 (H1299; Homo sapiens, NCI-H1299, read-out: EC90 cell growth inhibition, H1299, p53 null, calculated from EC50 and Hill slope): > 50 µM
EC90 (HCT116^−/−; Homo sapiens, HCT-116, read-out: EC90 cell growth inhibition, HCT116^−/−, p53 null, calculated from EC50 and Hill slope): > 50 µM
inhibitory activity in p53-null cells [3]: much less effective

Structure (SMILES): CCOC(=O)Cn1c2ccccc2c2nnc(SC(CC)C(=O)N3c4ccccc4Sc4ccccc43)nc21 (stereo not drawn) [Compound 28, Ethyl 2-(3-((1-oxo-1-(10H-phenothiazin-10-yl)butan-2-yl)thio)-5H-[1,2,4]triazino[5,6-b]indol-5-yl)acetate]
p53 induction / activation (p53): essentially inactive

Structure (SMILES): CCC(Sc1nnc2c3ccccc3n(C(=O)c3ccccc3)c2n1)C(=O)N1c2ccccc2Sc2ccccc21 (stereo not drawn) [Compound 21, 2-((5-benzoyl-5H-[1,2,4]triazino[5,6-b]indol-3-yl)thio)-1-(10H-phenothiazin-10-yl)butan-1-one]
inhibitory activity in p53-null cells [3]: much less effective

Structure (SMILES): CCC(Sc1nnc2c(n1)[nH]c1ccccc12)C(=O)N1c2ccccc2Sc2ccc(Cl)cc21 (stereo not drawn) [Compound 6, 2-((5H-[1,2,4]triazino[5,6-b]indol-3-yl)thio)-1-(2-chloro-10H-phenothiazin-10-yl)butan-1-one]
p53 induction / activation (p53): remained active in p53 induction

EC90 fold lower than INZ ([1]; versus INZ): 1.5 fold
EC90 [1]: 20 to 30 µM
Structure (SMILES): CCC(Sc1nnc2c(n1)[nH]c1cc(C)ccc12)C(=O)N1c2ccccc2Sc2ccccc21 (stereo not drawn) [Compound 19, 2-((7-methyl-5H-[1,2,4]triazino[5,6-b]indol-3-yl)thio)-1-(10H-phenothiazin-10-yl)butan-1-one]
p53 induction at 0.5 μM (p53): significant effect on p53 induction compared to INZ
inhibitory activity in p53-null cells [3]: much less effective

EC50 (H460): 3.5 ± 0.4 µM
EC90 (H460): ~7.7 µM and 7.7 µM
EC50 (HCT116^+/+; HCT116^+/+, p53 wild type, 72 hrs, read-out: EC50 cell growth inhibition): 0.8 ± 0.5 µM
EC90 (HCT116^+/+; HCT116^+/+, p53 wild type, calculated from EC50 and Hill slope, read-out: EC90 cell growth inhibition): 4.6 µM
EC90 fold lower than INZ ([1]; versus INZ): 5 fold
EC50 (H1299; H1299, p53 null, 72 hrs): 16.6 µM
EC50 (HCT116^−/−; HCT116^−/−, p53 null, 72 hrs): 7.8 ± 3.4 µM
Structure (SMILES): CCC(Sc1nnc2c3ccccc3n(CCO)c2n1)C(=O)N1c2ccccc2Sc2ccccc21 (stereo not drawn) [Compound 30, 2-((5(2-hydroxyethyl)-5H-[1,2,4]triazino[5,6-b]indol-5-yl)thiol)-1-(10H-phenothiazin-10-yl)butan-1-one]
cell growth inhibition ([1]; compared with INZ or compound 8): comparable to compound 8
p53 induction / activation (p53): comparable to compound 8; also recorded: more potent in p53 activation than their parental compound INZ
inhibitory activity in p53-null cells [3]: much less effective

Structure (SMILES): CCC(Sc1nnc2c(n1)[nH]c1ccccc12)C(=O)N1c2ccccc2Sc2ccccc21 (stereo not drawn) [INZ, 2-((5H-[1,2,4]triazino[5,6-b]indole-3yl)thio)-1-(10H-phenothiazin-10-yl)butan-1-one, reference compound]
EC50 (H460; Homo sapiens, NCI-H460): 7.7 ± 1.1 µM
EC90 (H460; Homo sapiens, NCI-H460): ~39.9 µM
EC50 (HCT116^+/+; [5]): 3.52 µM
EC50 (HCT116^+/+; Homo sapiens, HCT-116, HCT116^+/+, p53 wild type, 72 hrs, read-out: EC50 cell growth inhibition): 2.7 ± 0.3 µM
EC90 (HCT116^+/+; [6]): 30.5 µM
growth of xenograft tumors [4]: repressed the growth of xenograft tumors
EC50 (H1299; Homo sapiens, NCI-H1299, 72 h): 11.6 ± 3.4 µM
EC90 (H1299; Homo sapiens, NCI-H1299, read-out: EC90 cell growth inhibition): 217 µM
EC50 (HCT116^−/−; Homo sapiens, HCT-116, 72 h): 13.3 ± 2.4 µM
EC90 (HCT116^−/−; Homo sapiens, HCT-116, read-out: EC90 cell growth inhibition): 213 µM
EC50 fold greater in p53-null cells than in p53-containing cell lines ([3]; p53-null versus p53-containing): 1.5 fold
EC90 fold greater in p53-null cells than in p53-containing cell lines ([3]; p53-null versus p53-containing): 5-7 fold

Structure (SMILES): CCC(Sc1nnc2c(n1)[nH]c1cc(OC)ccc12)C(=O)N1c2ccccc2Sc2ccccc21 (stereo not drawn) [Compound 18, 2-((7-methoxy-5H-[1,2,4]triazino[5,6-b]indol-3-yl)thio)-1-(10H-phenothiazin-10-yl)butan-1-one]
p53 induction / activation (p53): marked decrease in p53 activation

Structure (SMILES): CCC(Sc1nnc2c3ccccc3n(C(=O)CCCCC3CC4NC(=O)NC4S3)c2n1)C(=O)N1c2ccccc2Sc2ccccc21 (stereo not drawn) [Compound 20, 5-(5-oxo-5-(3-((1-oxo-1-(10H-phenothiazin-10-yl)butan-2-yl)thio)-5H-[1,2,4]triazino[5,6-b]indol-5-yl)pentyl)tetrahydro-1H-thieno[2,3-d]imidazole-2(5H)-one]
p53 induction / activation (p53): as effective as INZ

Structure (SMILES): CCC(Sc1nnc2c3ccccc3n(CC(=O)c3ccccc3)c2n1)C(=O)N1c2ccccc2Sc2ccccc21 (stereo not drawn) [Compound 33, 2-((5-(2-oxo-2-phenylethyl)-5H-[1,2,4]triazino[5,6-b]indol-3-yl)thiol)-1-(10H-phenothiazin-10-yl)butan-1-one]
p53 induction / activation (p53): significant decrease in activity

Structure (SMILES): CCC(Sc1nnc2c(n1)[nH]c1ccccc12)C(=O)N1c2ccccc2Sc2ccc(OC)cc21 (stereo not drawn) [Compound 7, 2-((5H-[1,2,4]triazino[5,6-b]indol-3-yl)thio)-1-(2-methoxy-10H-phenothiazin-10-yl)butan-1-one]
p53 induction / activation (p53): remained active in p53 induction
